pIC50: −log10 of the molar value.

This experiment deals with T1, human CXCR3 (N-delta 4) (Homo sapiens, UniProt P49682).
T1 construct: CD8 leader (N); Flag; expressed in transfected cells; membranes prepared
T1 sequence (P49682 5-368 limits assumed): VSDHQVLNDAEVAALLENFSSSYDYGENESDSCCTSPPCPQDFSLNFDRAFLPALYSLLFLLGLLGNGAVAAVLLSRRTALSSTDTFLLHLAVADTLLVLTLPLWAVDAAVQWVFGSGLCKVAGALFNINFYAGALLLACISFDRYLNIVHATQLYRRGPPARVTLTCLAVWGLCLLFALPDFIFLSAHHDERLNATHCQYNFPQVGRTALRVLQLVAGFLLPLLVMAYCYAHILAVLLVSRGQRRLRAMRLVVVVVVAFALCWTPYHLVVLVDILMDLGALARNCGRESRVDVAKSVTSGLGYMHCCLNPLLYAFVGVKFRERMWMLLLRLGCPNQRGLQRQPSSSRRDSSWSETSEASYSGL
The experiment can be described thus: Human CXCR3 (N-delta 4) Scintillation Proximity Assay (SPA), [125I] IP-10 binding to Ba/F3-hCXCR3 membranes. As to conditions: IC50 rating, Table 1; read-out: IC50. (In a scintillation proximity assay essentially only radioactivity close to the scintillant gives light.)
For `CC[C@H]1CN(c2ncc(C(N)=O)nc2C)CCN1C1CCN(Cc2ccc(Cl)cc2)CC1` [compound 412], the pIC50 (in general, the IC50 on a negative log10 scale, so that one unit is a factor of ten) was more than 7.60.
With `CC[C@H]1CN(c2nc(N)c(C(=O)NCCO)nc2Cl)CCN1C1CCN(Cc2ccc(F)c(OCCSC)c2)CC1` [compound 413] the figure was more than 7.60.
For `CC[C@H]1CN(c2nc(N)c(C(=O)NCCO)nc2Cl)CCN1C1CCN(Cc2ccc(OCCSC)c(F)c2)CC1` [compound 415], the negative logarithm of the IC50 (pIC50) is more than 7.60.
Under `CC[C@H]1CN(c2ncc(C(N)=O)nc2C(F)(F)F)CCN1C1CCN(C(=O)c2ccc(Cl)cc2)CC1` [compound 416] stands more than 7.60.
With `CC[C@H]1CN(c2ncc(C(N)=O)nc2C)[C@H](C)CN1C1CCN(C(=O)c2ccc(Cl)cc2)CC1` [compound 417] the figure was more than 7.60; with `CC[C@H]1CN(c2nc(N)c(C(=O)NCCO)nc2Cl)CCN1C1CCN(C(=O)c2ccc(F)c(O)c2)CC1` [compound 419], more than 7.60; with `CC[C@H]1CN(c2nc(N)c(C(=O)NC3CC3)nc2Cl)CCN1C1CCN(Cc2ccc(Cl)cc2S(C)(=O)=O)CC1` [compound 420], more than 7.60.
With `CC[C@H]1CN(c2nc(N)c(C(=O)NCCO)nc2Cl)CCN1C1CCN(Cc2ccc(F)c(OS(C)(=O)=O)c2)CC1` [compound 421] the figure was more than 7.60; with `CC[C@H]1CN(c2nc(N)c(C(=O)NCCO)nc2Cl)CCN1C1CCN(Cc2ccc(Cl)cc2S(C)(=O)=O)CC1` [compound 422], more than 7.60.
For `CCc1nc(C(N)=O)cnc1N1CCN(C2CCN(C(=O)c3ccc(Cl)cc3)CC2)[C@@H](CC)C1` [compound 423], the pIC50 is 7.00 to 7.60.
Under `CC[C@H]1CN(c2ncc(C(=O)NC3=NCCN3)nc2Cl)CCN1C1CCN(C(=O)c2ccc(Cl)cc2)CC1` [compound 424] stands less than 7.00.
In the case of `CC[C@H]1CN(c2cnc(C(N)=O)cn2)CCN1C1CCN(Cc2ccc(Cl)cc2)CC1` [compound 425], the negative logarithm of the IC50 (pIC50) was less than 7.00.
Consider `CC[C@H]1CN(c2nc(N)c(C(=O)NCCO)nc2Cl)CCN1C1CCN(Cc2ccc(OS(C)(=O)=O)c(F)c2)CC1` [compound 426], for which the pIC50 was less than 7.00.
Under `CC[C@H]1CN(c2nc(N)c(C(=O)NCCO)nc2Cl)CCN1C1CCN(Cc2ccc(O)c(F)c2)CC1` [compound 427] stands less than 7.00.
Under `CC[C@H]1CN(c2nc(N)c(C(N)=O)nc2Cl)CCN1C1CCN(Cc2ccc(O)c(F)c2)CC1` [compound 428] stands less than 7.00; under `CC[C@H]1CN(c2nc(N)c(C(N)=O)nc2Cl)CCN1C1CCN(Cc2ccc(Cl)cc2S(=O)(=O)NC)CC1` [compound 429], less than 7.00.
Take `CC[C@H]1CN(c2nc(N)c(C(=O)NCCO)nc2Cl)CCN1C1CCN(C(=O)c2ccc(CS(C)(=O)=O)cc2)CC1` [compound 430]: the pIC50 is less than 7.00.
Under `CC[C@H]1CN(c2ncc(C(N)=O)nc2C)CCN1C1CCN(Cc2ccc(F)cc2)CC1` [compound 431] stands more than 7.60; under `CC[C@H]1CN(c2ncc(C(N)=O)nc2C)[C@H](C)CN1C1CCN(Cc2ccc(F)cc2)CC1` [compound 432], more than 7.60.
With `CC[C@H]1CN(c2ncc(C(N)=O)nc2C)CCN1C1CCN(Cc2ccc(C)c(F)c2)CC1` [compound 433] the figure was more than 7.60; with `CC[C@H]1CN(c2ncc(C(N)=O)nc2C)[C@H](C)CN1C1CCN(Cc2ccc(C#N)cc2)CC1` [compound 434], more than 7.60.
On to `CC[C@H]1CN(c2ncc(C(=O)NC)nc2C)CCN1C1CCN(C(=O)c2ccc(F)cc2)CC1` [compound 435], for which the negative-log IC50 (pIC50) was more than 7.60.
`CC[C@H]1CN(c2ncc(C(=O)NC)nc2C)CCN1C1CCN(C(=O)c2ccc(Cl)cc2)CC1` [compound 437]: the negative-log IC50 (pIC50) is more than 7.60.
Under `CC[C@H]1CN(c2cnc(C(N)=O)cn2)CCN1C1CCN([C@@H](CO)c2ccc(Cl)cc2)CC1` [compound 438] stands more than 7.60; under `CC[C@H]1CN(c2ncc(C(=O)NC3CC3)nc2C)CCN1C1CCN(Cc2ccc(C)cc2)CC1` [compound 439], more than 7.60.
Turning to `CC[C@H]1CN(c2ncc(C(=O)NC3CC3)nc2C)CCN1C1CCN(Cc2ccc(F)cc2)CC1` [compound 440], the pIC50 was more than 7.60.
With `CC[C@H]1CN(c2ncc(C(N)=O)nc2C)CCN1C1CCN(C(=O)c2ccc(Cl)cc2N)CC1` [compound 442] the figure was more than 7.60.
On to `CC[C@H]1CN(c2ncc(C(N)=O)nc2C)CCN1C1CCN([C@@H](CO)c2ccc(Cl)cc2)CC1` [compound 443], for which the negative logarithm of the IC50 (pIC50) was more than 7.60.
With `CC[C@H]1CN(c2ncc(C(N)=O)nc2C)CCN1C1CCN([C@H](CO)c2ccc(Cl)cc2)CC1` [compound 444] the figure was more than 7.60; with `CC[C@H]1CN(c2ncc(C(N)=O)nc2C)CCN1C1CCN(Cc2ccc(C(F)(F)F)cc2)CC1` [compound 445], more than 7.60.
Turning to `CC[C@H]1CN(c2ncc(C(=O)NC3CC3)nc2C)CCN1C1CCN(C(=O)c2ccc(C)cc2)CC1` [compound 446], the negative logarithm of the IC50 (pIC50) was more than 7.60.
With `CC[C@H]1CN(c2ncc(C(=O)NC3CC3)nc2C)CCN1C1CCN(C(=O)c2ccc(F)cc2)CC1` [compound 447] the figure was more than 7.60; with `CC[C@H]1CN(c2ncc(C(=O)NC3CC3)nc2C)CCN1C1CCN(Cc2ccc(C)c(F)c2)CC1` [compound 448], more than 7.60.
Under `CC[C@H]1CN(c2ncc(C(=O)NC3CC3)nc2C)CCN1C1CCN(Cc2ccc(Cl)cc2)CC1` [compound 449] stands more than 7.60; under `CC[C@H]1CN(c2ncc(C(=O)NC3CC3)nc2C)CCN1C1CCN(Cc2ccc(F)c(F)c2)CC1` [compound 450], more than 7.60; under `CCNC(=O)c1cnc(N2CCN(C3CCN(C(=O)c4ccc(Cl)cc4)CC3)[C@@H](CC)C2)c(C)n1` [compound 451], more than 7.60.
On to `CC[C@H]1CN(c2ncc(C(=O)NC)nc2C)[C@H](C)CN1C1CCN(C(=O)c2ccc(Cl)cc2)CC1` [compound 452], for which the pIC50 was more than 7.60.
In the case of `CC[C@H]1CN(c2ncc(C(N)=O)nc2C)[C@H](C)CN1C1CCN([C@@H](CO)c2ccc(Cl)cc2)CC1` [compound 453], the pIC50 was more than 7.60.
With `CC[C@H]1CN(c2ncc(C(=O)NC)nc2C)CCN1C1CCN(C(=O)c2ccc(Cl)c(F)c2)CC1` [compound 454] the figure was more than 7.60; with `CC[C@H]1CN(c2ncc(C(=O)NC)nc2C)CCN1C1CCN(C(=O)c2ccc(Cl)cc2F)CC1` [compound 455], more than 7.60.
Under `CC[C@H]1CN(c2ncc(C(=O)NC)nc2C)CCN1C1CCN(C(=O)c2ccc(F)c(Cl)c2)CC1` [compound 456] stands more than 7.60; under `CC[C@H]1CN(c2ncc(C(N)=O)nc2Cl)CCN1C1CCN([C@@H](CO)c2ccc(Cl)cc2)CC1` [compound 457], more than 7.60.
With `CC[C@H]1CN(c2ncc(C(N)=O)nc2Cl)CCN1C1CCN([C@H](CO)c2ccc(Cl)cc2)CC1` [compound 458] the figure was more than 7.60.
Take `CC[C@H]1CN(c2ncc(C(=O)NC3CC3)nc2C)CCN1C1CCN(C(=O)c2ccc(C)c(F)c2)CC1` [compound 459]: the pIC50 is more than 7.60.
Consider `CC[C@H]1CN(c2ncc(C(=O)NC3CC3)nc2C)CCN1C1CCN(C(=O)c2ccc(Cl)cc2)CC1` [compound 460], for which the pIC50 was more than 7.60.
With `CC[C@H]1CN(c2ncc(C(=O)NC3CC3)nc2C)CCN1C1CCN(C(=O)c2ccc(F)c(F)c2)CC1` [compound 461] the figure was more than 7.60; with `CC[C@H]1CN(c2ncc(C(=O)NC3CC3)nc2C)CCN1C1CCN(C(=O)c2ccc(F)cc2F)CC1` [compound 462], more than 7.60; with `CC[C@H]1CN(c2ncc(C(N)=O)nc2C)CCN1C1CCN([C@@H](C(=O)OC)c2ccc(Cl)cc2)CC1` [compound 463], more than 7.60.
With `CC[C@H]1CN(c2ncc(C(N)=O)nc2C)CCN1C1CCN(C(C(=O)OC)c2ccc(Cl)cc2)CC1` (stereo partly drawn) [compound 464] the figure was more than 7.60.
For the compound `CC[C@H]1CN(c2ncc(C(=O)OC)nc2C)[C@H](C)CN1C1CCN([C@@H](CO)c2ccc(Cl)cc2)CC1` [compound 465], the pIC50 was more than 7.60.
Under `CC[C@H]1CN(c2ncc(C(N)=O)nc2C)[C@H](C)CN1C1CCN(Cc2ccc(OC(F)(F)F)cc2)CC1` [compound 466] stands more than 7.60; under `CC[C@H]1CN(c2ncc(C(=O)NC3CC3)nc2C)CCN1C1CCN(C(=O)c2ccc(F)c(OC)c2)CC1` [compound 467], more than 7.60; under `CC[C@H]1CN(c2ncc(C(=O)NC3CC3)nc2C)[C@H](C)CN1C1CCN(C(=O)c2ccc(Cl)cc2)CC1` [compound 468], more than 7.60.
Under `CC[C@H]1CN(c2ncc(C(=O)NC3CC3)nc2C)CCN1C1CCN([C@@H](CO)c2ccc(Cl)cc2)CC1` [compound 469] stands more than 7.60; under `CC[C@H]1CN(c2ncc(C(=O)NC3CC3)nc2C)CCN1C1CCN([C@H](CO)c2ccc(Cl)cc2)CC1` [compound 470], more than 7.60; under `CC[C@H]1CN(c2ncc(C(=O)NC3CC3)nc2C)CCN1C1CCN([C@@H](CO)c2ccc(F)c(F)c2)CC1` [compound 471], more than 7.60.
Under `CC[C@H]1CN(c2ncc(C(=O)NC3CC3)nc2C)CCN1C1CCN([C@H](CO)c2ccc(F)c(F)c2)CC1` [compound 472] stands more than 7.60.
Regarding `CC[C@H]1CN(c2ncc(C(=O)NC3CC3)nc2C)CCN1C1CCN(Cc2ccc(C(F)(F)F)cc2)CC1` [compound 473], the pIC50 is more than 7.60.
Regarding `CCNC(=O)c1cnc(N2C[C@H](CC)N(C3CCN(C(=O)c4ccc(Cl)cc4)CC3)C[C@H]2C)c(Cl)n1` [compound 474], the pIC50 is more than 7.60.
With `CC[C@H]1CN(c2ncc(C(=O)NC)nc2C)CCN1C1CCN(C(=O)c2ccc(OC(F)(F)F)cc2)CC1` [compound 475] the figure was more than 7.60.

For the origin of these results see US7868005B2, “Pyrazinyl substituted piperazine-piperidines with CXCR3 antagonist activity” (Schering Corporation, priority 2005, dated 2011).
